One may read the melting point as the temperature, or range, at which the solid turns liquid.

In turn, `COc1cc2c(nc1OC)c(-c1cc3cc(F)cnc3[nH]1)cn2CCN1CCOCC1` [Example 7, 3-(5-fluoro-1H-pyrrolo[2,3-b]pyridin-2-yl)-5,6-dimethoxy-1-(2-morpholin-4-ylethyl)-1H-pyrrolo[3,2-b]pyridine] registered a melting point of 218 °C.

On to `COc1cc2c(nc1OC)c(-c1cc3c(Cl)c(F)cnc3[nH]1)cn2CCN1CCOCC1` [Example 8, 3-(4-chloro-5-fluoro-1H-pyrrolo[2,3-b]pyridin-2-yl)-5,6-dimethoxy-1-(2-morpholin-4-yl-ethyl)-1H-pyrrolo[3,2-b]pyridine], for which the melting point was determined as 206 °C. For `COc1cc2[nH]cc(-c3cc4c(Cl)c(F)cnc4[nH]3)c2nc1OC` [Example 9, 3-[4-Chloro-5-fluoro-1H-pyrrolo[2,3-b]pyridin-2-yl]-5,6-dimethoxy-1H-pyrrolo[3,2-b]pyridine], the melting point was in the range of 283 to 284 °C. The same measure for `COc1cc2c(nc1OC)c(-c1cc3c(Cl)c(F)cnc3[nH]1)cn2CCCN1CCCCC1` [Example 11, 3-[4-Chloro-5-fluoro-1H-pyrrolo[2,3-b]pyridin-2-yl]-5,6-dimethoxy-1-(3-piperidin-1-ylpropyl)-1H-pyrrolo[3,2-b]pyridine]: 110 to 114 °C; for `COc1cc2c(nc1OC)c(-c1cc3c(Cl)c(F)cnc3[nH]1)cn2CCCN1CCC(O)CC1` [Example 12, 1-{3-[3-(4-Chloro-5-fluoro-1H-pyrrolo[2,3-b]pyridin-2-yl)-5,6-dimethoxypyrrolo[3,2-b]pyridin-1-yl]propyl}piperidin-4-ol]: 188 °C. `COc1cc2c(nc1OC)c(-c1cc3c(Cl)c(F)cnc3[nH]1)cn2CCCN1CCCN(C)CC1` [Example 13, 3-(4-Chloro-5-fluoro-1H-pyrrolo[2,3-b]pyridin-2-yl)-5,6-dimethoxy-1-[3-(4-methylperhydro-1,4-diazepin-1-yl)propyl]-1H-pyrrolo[3,2-b]pyridine] yielded a melting point of 140 to 145 °C. `COc1cc2c(nc1OC)c(-c1cc3c(Cl)c(F)cnc3[nH]1)cn2CCCN1CCOCC1` [Example 14, 3-(4-Chloro-5-fluoro-1H-pyrrolo[2,3-b]pyridin-2-yl)-5,6-dimethoxy-1-(3-morpholin-4-ylpropyl)-1H-pyrrolo[3,2-b]pyridine] gave a melting point of 189 °C.

As for `COc1cc2c(nc1OC)c(-c1cc3c(Cl)c(F)cnc3[nH]1)cn2CCCN1CCC(CN)CC1` [Example 15, C-(1-{3-[3-(4-Chloro-5-fluoro-1H-pyrrolo[2,3-b]pyridin-2-yl)-5,6-dimethoxypyrrolo[3,2-b]pyridin-1-yl]propyl}piperidin-4-yl)methylamine], the melting point was 135 °C.

In the case of `COc1cc2c(nc1OC)c(-c1cc3c(Cl)c(F)cnc3[nH]1)cn2CCCN1CCN(C)CC1` [Example 16, 3-(4-Chloro-5-fluoro-1H-pyrrolo[2,3-b]pyridin-2-yl)-5,6-dimethoxy-1-[3-(4-methylpiperazin-1-yl)propyl]-1H-pyrrolo[3,2-b]pyridine], the melting point is 155 °C.

For the origin of these results see patent publication US7786114B2, “Bis-azaindole derivatives, preparation and pharmaceutical use thereof as kinase inhibitors” (Aventis Pharma S.A., priority 2004, dated 2010).
